Results taken from patent US20040248913A1, “(Pyridinyl and pyrimidyl) trienoic acid derivatives as retinoid x receptor modulators” (priority 2001, published 2004).

Legend:
RXRα homodimer = target: T1, RXRα homodimer (Homo sapiens, UniProt P19793); assay: RXR homodimer co-transfection assay in CV-1 cells (CRBPIITKLUC reporter); type: cell-based; settings: for Agonist Efficacy (%): mean of n > 2; for Antagonist Efficacy (%) / IC50: RXRα homodimer; for Antagonist Efficacy (%): % of maximal inhibition in presence of fixed concentration (3.2×10^−8 M) of known RXR agonist; for IC50: in presence of known RXR agonist, read-out: Antagonist IC50; for Activity in the context of RXR homodimers (in words): summary of Table 1
T1 sequence (P19793 1-462): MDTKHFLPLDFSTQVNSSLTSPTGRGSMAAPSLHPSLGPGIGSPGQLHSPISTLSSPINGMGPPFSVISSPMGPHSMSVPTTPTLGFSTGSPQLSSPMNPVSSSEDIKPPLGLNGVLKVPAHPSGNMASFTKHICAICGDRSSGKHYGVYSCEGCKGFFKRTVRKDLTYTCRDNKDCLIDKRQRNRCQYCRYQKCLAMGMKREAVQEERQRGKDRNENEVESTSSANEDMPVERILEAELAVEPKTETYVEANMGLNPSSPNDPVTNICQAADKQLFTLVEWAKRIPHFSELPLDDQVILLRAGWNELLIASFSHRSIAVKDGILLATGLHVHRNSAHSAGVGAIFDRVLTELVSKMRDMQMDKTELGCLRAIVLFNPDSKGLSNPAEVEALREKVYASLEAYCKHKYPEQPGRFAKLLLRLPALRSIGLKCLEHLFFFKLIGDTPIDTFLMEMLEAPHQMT
Description: This assay is described in further detail in U.S. Pat. Nos. 4,981,784 and 5,071,773, the disclosures of which are incorporated herein by reference.
The co-transfection assay provides a method for identifying functional agonists which mimic, or antagonists which inhibit, the effect of native hormones, and quantifying their activity for responsive IR proteins. In this regard, the co-transfection assay mimics an in vivo system in the laboratory. Importantly, activity in the co-transfection assay correlates very well with known in vivo activity, such that the co-transfection assay functions as a qualitative and quantitative predictor of a tested compounds in vivo pharmacology. See, e.g., T. Berger et al. 41 J. Steroid Biochem. Molec. Biol. 773 (1992), the disclosure of which is herein incorporated by reference.
(§1) In the co-transfection assay, cloned cDNA for one or more IRs (e.g., human RARα, RXRα, or PPARγ), alone or in combination (i.e. for heterodimer assays) under the control of a constitutive promoter (e.g., the SV 40, RSV or CMV promoter) is introduced by transfection (a procedure to introduce exogenous genes into cells) into a background cell substantially devoid of endogenous IRs. These introduced gene(s) direct the recipient cells to make the IR protein(s) of interest. A further gene is also introduced (co-transfected) into the same cells in conjunction with the IR gene(s). This further gene, comprising the cDNA for a reporter protein, such as firefly luciferase (LUC), controlled by an appropriate hormone responsive promoter containing a hormone response element (HRE). This reporter plasmid functions as a reporter for the transcriptional-modulating activity of the target IR(s). Thus, the reporter acts as a surrogate for the products (mRNA then protein) normally expressed by a gene under control of the target receptor(s) and their native hormone(s).
Exposing the transfected cells to an agonist ligand compound increases reporter activity in the transfected cells. This activity can be conveniently measured, e.g., by increasing luciferase production and enzymatic activity, which reflects compound-dependent, IR-mediated increases in reporter transcription. To detect antagonists, the co-transfection assay is carried out in the presence of a constant concentration of an known agonist to the target IR (e.g., 4-[(3,5,5,8,8-Pentamethyl-5,6,7,8-tetrahydro-2-naphthyl)ethenyl]benzoic acid (Ligand Pharmaceuticals, Inc.) for RXRα) known to induce a defined reporter signal. Increasing concentrations of an antagonist will decrease the reporter signal (e.g., luciferase production). The co-transfection assay is therefore useful to detect both agonists and antagonists of specific IRs. Furthermore, it determines not only whether a compound interacts with a particular IR, but whether this interaction mimics (agonizes) or blocks (antagonizes) the effects of native or synthetic regulatory molecules on target gene expression, as well as the specificity and strength of this interaction.
The receptor expression plsmid was cotransfected along with a reporter plasmid at 50 ng/well, the internal control plasmid pRS-β-Gal at 50 ng/well and filler DNA, pGEM, at 90 ng/well.

RXRα:RAR heterodimer [1] = target: T2, RXRα:RAR heterodimer (Homo sapiens, UniProt P19793); assay: RXR:RAR heterodimer cotransfection assay in CV-1 cells; type: cell-based; settings: for RXR:RAR antagonist activity (in words): antagonist assay; for Antagonist Efficacy (%): relative to maximal repression (100%) in presence of 10 nM TTNPB
T2 construct: expressed in transfected cells; host or cells: CV-1 cells
T2 sequence (P19793 1-462): T1 sequence (P19793 1-462)
Description: as §1
(§2) Compounds of the present invention were also tested for the ability to synergize with an RAR or PPARγ agonist in the context of an RXR heterodimer. […] Efficacy of the compounds of the present invention in the agonist and synergy assays was calculated as the maximum response obtained over the range of the dose response curve relative to the maximum response obtained by the reference agonist. Antagonist efficacy was determined as a function (%) of maximal inhibition.
(§3) RAR suppresses RXR ligand binding and transactivation of typical RXR agonists via allosteric interactions. […] However, when RAR is occupied, typical RXR agonists activate the heterodimer. […] To examine the effects of the compounds of the present invention on the transcriptional properties of the RXR:RAR heterodimer, a heterodimer cotransfection assay as described above was employed.

RXRα:RAR heterodimer [2] = assay: as above; type: cell-based, human; settings: for Synergy Efficacy (%): maximal response in presence of 3 nM TTNPB relative to response to TTNPB alone; for Agonist Efficacy (%): maximal response relative to response of ATRA
Description: as §1, §2, §3

[3] = RXRα homodimer cotransfection, CV-1 cells
[4] = not calculated if efficacy <10%

CCCCOc1c(\C(C)=C/C=C/C(C)=C/C(=O)O)cc(C(C)C)nc1C(C)C [Example 1, 7-(3-Butoxy-2,6-diisopropyl-pyridin-4-yl)-3-methyl-octa-2(E),4(E),6(Z)-trienoic Acid]
Agonist Efficacy (%) (RXRα homodimer; [3]): 1% | Antagonist Efficacy (%) (RXRα homodimer): 93% | IC50 (RXRα homodimer; [4]): 3.5 nM | Activity in the context of RXR homodimers (in words) (RXRα homodimer): highly efficacious and potent antagonist activity with little or no agonists activity | RXR:RAR antagonist activity (in words) (RXRα:RAR heterodimer [1]): significant RXR:RAR antagonist activity | Antagonist Efficacy (%) (RXRα:RAR heterodimer [1]): 93% | RXR:RAR agonist activity / transactivation alone (in words) (RXRα:RAR heterodimer [2]): not active | RXR:RAR agonist activity in combination with TTNPB (in words) (RXRα:RAR heterodimer [2]): not active | Synergy Efficacy (%) (RXRα:RAR heterodimer [2]): 7% | Agonist Efficacy (%) (RXRα:RAR heterodimer [2]): 1%

CCCOc1c(\C(C)=C/C=C/C(C)=C/C(=O)O)cc(C(C)C)nc1C(C)C [Example 2, 7-(2,6-Diisopropyl-3-propoxy-pyridin-4-yl)-3-methyl-octa-2(E),4(E),6(Z)-trienoic Acid]
Agonist Efficacy (%) (RXRα homodimer; [3]): 4% | Antagonist Efficacy (%) (RXRα homodimer): 88% | IC50 (RXRα homodimer; [4]): 4.1 nM | Activity in the context of RXR homodimers (in words) (RXRα homodimer): highly efficacious and potent antagonist activity with little or no agonists activity | RXR:RAR antagonist activity (in words) (RXRα:RAR heterodimer [1]): significant RXR:RAR antagonist activity | Antagonist Efficacy (%) (RXRα:RAR heterodimer [1]): 88% | RXR:RAR agonist activity / transactivation alone (in words) (RXRα:RAR heterodimer [2]): not active | RXR:RAR agonist activity in combination with TTNPB (in words) (RXRα:RAR heterodimer [2]): not active | Synergy Efficacy (%) (RXRα:RAR heterodimer [2]): 6% | Agonist Efficacy (%) (RXRα:RAR heterodimer [2]): 2%

CCOc1c(\C(C)=C/C=C/C(C)=C/C(=O)O)cc(C(C)C)nc1C(C)C [Example 3, 7-(2,6-Diisopropyl-3-ethoxy-pyridin-4-yl)-3-methyl-octa-2(E),4(E),6(Z)-trienoic acid]
Agonist Efficacy (%) (RXRα homodimer; [3]): 51% | EC50 (RXRα homodimer; RXRα homodimer cotransfection, CV-1 cells, not calculated if efficacy <10%, read-out: Agonist EC50): 2 nM | Antagonist Efficacy (%) (RXRα homodimer): 3% | Activity in the context of RXR homodimers (in words) (RXRα homodimer): agonist activity | RXR:RAR agonist activity in combination with TTNPB (in words) (RXRα:RAR heterodimer [2]): strong agonist activity | Synergy Efficacy (%) (RXRα:RAR heterodimer [2]): 73% | Agonist Efficacy (%) (RXRα:RAR heterodimer [2]): 6%

C/C(=C/C=C/C(C)=C/C(=O)O)c1cc(C(C)C)nc(C(C)C)c1OCC(F)F [Example 4, 7-[3-(2,2-Difluoro-ethoxy)-2,6-diisopropyl-pyridin-4-yl]-3-methyl-octa-2(E),4(E),6(Z)-trienoic acid]
Agonist Efficacy (%) (RXRα homodimer; [3]): 9% | Antagonist Efficacy (%) (RXRα homodimer): 76% | IC50 (RXRα homodimer; [4]): 8.7 nM | Activity in the context of RXR homodimers (in words) (RXRα homodimer): highly efficacious and potent antagonist activity with little or no agonists activity | Antagonist Efficacy (%) (RXRα:RAR heterodimer [1]): 76% | RXR:RAR agonist activity in combination with TTNPB (in words) (RXRα:RAR heterodimer [2]): weak to moderate agonist activity | Synergy Efficacy (%) (RXRα:RAR heterodimer [2]): 37% | Agonist Efficacy (%) (RXRα:RAR heterodimer [2]): 9%

C/C(=C/C=C/C(C)=C/C(=O)O)c1cc(C(C)C)nc(C(C)C)c1OCC(F)(F)F [Example 5, 7-[2,6-Diisopropyl-3-(2,2,2-trifluoro-ethoxy)-pyridin-4-yl]-3-methyl-octa-2(E),4(E),6(Z)-trienoic acid]
Agonist Efficacy (%) (RXRα homodimer; [3]): 3% | Antagonist Efficacy (%) (RXRα homodimer): 85% | IC50 (RXRα homodimer; [4]): 8 nM | Activity in the context of RXR homodimers (in words) (RXRα homodimer): highly efficacious and potent antagonist activity with little or no agonists activity | Antagonist Efficacy (%) (RXRα:RAR heterodimer [1]): 85% | RXR:RAR agonist activity in combination with TTNPB (in words) (RXRα:RAR heterodimer [2]): weak to moderate agonist activity | Synergy Efficacy (%) (RXRα:RAR heterodimer [2]): 18% | Agonist Efficacy (%) (RXRα:RAR heterodimer [2]): 3%
